Our source for the IC50 values is patent US8071768B2, “Alkylquinoline and alkylquinazoline kinase modulators” (Janssen Pharmaceutica, N.V., priority 2005, dated 2011).

Assay [1] concerns the target T1, isolated kinase domain of the human c-kit receptor (Homo sapiens, UniProt P10721).
T1 construct: isolated kinase domain of the human c-kit receptor; purchased ProQinase lot SP005
Kind of assay: c-Kit Fluorescence Polarization Kinase Assay. In kind it is biochemical. Conditions: uncertainty ±10%; read-out: ckit IC50. The procedure:
c-Kit Fluorescence Polarization Kinase Assay
The compounds of the present invention are also specific inhibitors of c-Kit. Selection of preferred compounds of Formula I for use as c-Kit inhibitors was performed in the following manner using an in vitro kinase assay to measure inhibition of the isolated kinase domain of the human c-kit receptor in a fluorescence polarization (FP) protocol. The c-kit assay utilized the fluorescein-labeled phosphopeptide and the anti-phosphotyrosine antibody included in the Panvera Phospho-Tyrosine Kinase Kit (Green) supplied by Invitrogen. When c-kit phosphorylated the poly Glu4Tyr, the fluorescein-labeled phosphopeptide was displaced from the anti-phosphotyrosine antibody by the phosphorylated poly Glu4Tyr, thus decreasing the FP value. The c-kit kinase reaction was incubated at room temperature for 45 minutes under the following conditions: 1 nM c-kit (ProQinase, lot SP005), 100 ug/mL poly Glu4Tyr, 50 uM ATP, 5 mM MgCl2, 1 mM DTT, 0.01% Tween-20, 1% DMSO or compound in […], pH 7.5. The kinase reaction was stopped with the addition of EDTA. The fluorescein-labeled phosphopeptide and the anti-phosphotyrosine antibody were added and incubated for 30 minutes at room temperature and fluorescence polarization was read. Data points were an average of triplicate samples. Inhibition and IC50 data analysis were done with GraphPad Prism using a non-linear regression fit with a multiparamater, sigmoidal dose-response (variable slope) equation.
In general terms: Polarisation of emitted light reports the rotation of a fluorescent probe.

Assay [2] deals with T2, TrkB (Homo sapiens, UniProt Q16620).
T2 construct: purchased Upstate 14-507M
T2 sequence (Q16620 32-822): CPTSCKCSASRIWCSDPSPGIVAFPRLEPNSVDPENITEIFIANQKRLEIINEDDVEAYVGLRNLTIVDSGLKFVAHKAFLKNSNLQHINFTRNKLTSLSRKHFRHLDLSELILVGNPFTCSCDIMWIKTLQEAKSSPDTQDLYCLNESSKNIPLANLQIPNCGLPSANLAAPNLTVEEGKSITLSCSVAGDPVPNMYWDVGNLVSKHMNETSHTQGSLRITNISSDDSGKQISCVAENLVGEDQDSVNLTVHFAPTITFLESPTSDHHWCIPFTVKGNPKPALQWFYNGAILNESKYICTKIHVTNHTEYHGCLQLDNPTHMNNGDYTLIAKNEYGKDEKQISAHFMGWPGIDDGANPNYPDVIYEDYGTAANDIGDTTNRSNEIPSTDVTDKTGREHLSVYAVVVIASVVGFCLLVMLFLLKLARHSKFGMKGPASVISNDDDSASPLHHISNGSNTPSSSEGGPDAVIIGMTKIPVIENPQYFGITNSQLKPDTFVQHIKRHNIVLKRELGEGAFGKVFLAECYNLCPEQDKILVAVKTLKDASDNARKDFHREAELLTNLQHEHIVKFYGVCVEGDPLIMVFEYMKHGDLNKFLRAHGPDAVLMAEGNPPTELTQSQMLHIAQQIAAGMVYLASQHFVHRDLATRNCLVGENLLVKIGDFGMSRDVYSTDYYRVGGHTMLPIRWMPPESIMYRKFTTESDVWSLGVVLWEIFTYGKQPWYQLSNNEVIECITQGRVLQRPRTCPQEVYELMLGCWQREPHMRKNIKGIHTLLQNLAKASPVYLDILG
The assay can be described thus: Trk B Fluorescence Polarization Kinase Assay. Conditions: uncertainty ±10%. In kind it is biochemical. A digest of the protocol:
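The TrkB kinase reaction (50 nM enzyme, 20 ug/mL poly Glu4Tyr, 150 uM ATP, 5 mM MgCl2, 1% DMSO) ran 30 minutes at room temperature and was stopped with EDTA. Phosphorylation was detected by fluorescence-polarization displacement of a fluorescein phosphopeptide from an anti-phosphotyrosine antibody. IC50 came from a variable-slope sigmoidal fit of triplicates.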

For assay [3], the system named is MV4-11 cells. The assay can be described thus: Inhibition of MV4-11 cell proliferation (CellTiterGlo). The assay is classed as cell-based. To be noted: Homo sapiens; 72 hours growth; uncertainty ±20%. On the procedure: Inhibition of MV4-11 and Baf3 Cell Proliferation
To assess the cellular potency of the compounds of the present invention, FLT3 specific growth inhibition was measured in the leukemic cell line MV4-11 (ATCC Number: CRL-9591). MV4-11 cells are derived from a patient with childhood acute myelomonocytic leukemia with an 11q23 translocation resulting in a MLL gene rearrangement and containing an FLT3-ITD mutation (AML subtype M4)(1,2). MV4-11 cells cannot grow and survive without active FLT3ITD.
To measure proliferation inhibition by test compounds, the luciferase based CellTiterGlo reagent (Promega), which quantifies total cell number based on total cellular ATP concentration, was used. […]
Compound dilutions or 0.1% DMSO (vehicle control) are added to cells and the cells are allowed to grow for 72 hours at standard cell growth conditions (37° C., 5% CO2). […] To measure total cell growth an equal volume of CellTiterGlo reagent was added to each well, according to the manufacturer's instructions, and luminescence was quantified. Total cell growth was quantified as the difference in luminescent counts (relative light units, RLU) of cell number at Day 0 compared to total cell number at Day 3 (72 hours of growth and/or compound treatment). One hundred percent inhibition of growth is defined as an RLU equivalent to the Day 0 reading. […]

What is called IC50 is the concentration that inhibits the measured activity by half.

T1 sequence (P10721 589-937 limits assumed): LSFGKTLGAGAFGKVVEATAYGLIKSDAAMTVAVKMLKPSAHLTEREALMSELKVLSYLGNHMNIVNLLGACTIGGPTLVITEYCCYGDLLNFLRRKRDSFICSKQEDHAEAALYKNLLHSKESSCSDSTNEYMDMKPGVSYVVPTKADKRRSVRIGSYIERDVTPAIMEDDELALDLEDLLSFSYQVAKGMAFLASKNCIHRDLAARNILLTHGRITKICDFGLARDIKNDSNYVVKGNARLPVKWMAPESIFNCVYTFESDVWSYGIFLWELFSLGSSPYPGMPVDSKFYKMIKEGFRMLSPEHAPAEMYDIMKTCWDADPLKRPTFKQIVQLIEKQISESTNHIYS

As for `CC(C)Oc1ccc(NC(=O)N2CCC(c3ncnc4cc(OCCCN5CCN(C)CC5)ccc34)CC2)cc1` [Compound 39], the IC50 in assay [1] worked out at 14 nM; in assay [2], 600 nM; in assay [3], 14 nM.
